From the supplement of paper PMC10307832

Experiments:
Assay in all cases: relative viability (nuclei count vs DMSO), 5 days (fraction); higher = more cells survive
[1] = compound: COC1=CC(c2cc3ccccc3[nH]2)=N/C1=C\c1[nH]c(C)cc1C [Obatoclax] + O=C(c1cc(Cc2n[nH]c(=O)c3ccccc23)ccc1F)N1CCN(C(=O)C2CC2)CC1 [Olaparib] (partner 8 µM)
Procedure, shortened: (§1)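 After 5 days of treatment, lung cancer cells in 1536-well plates were fixed and stained in a single step (final 0.05% Triton X-100, 1% formaldehyde, 1 ug/ml Hoechst) and their nuclei counted on 4× images. Treatment had been applied by pin tool the day after seeding as one drug alone or as a fixed anchor-drug dose with five library-drug doses (not always all listed) in √10 steps. Relative viability is the nuclei count of treated wells divided by that of vehicle wells, and values are medians of duplicate plates.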

[2] = compound: CC1=CC(=NN1)NC2=CC(=NC(=N2)/C=C/C3=CC=CC=C3)N4CCN(CC4)C + CC(=O)c1c(C)c2cnc(Nc3ccc(N4CCNCC4)cn3)nc2n(C2CCCC2)c1=O [Palbociclib] (partner 0.5 µM)
Procedure, shortened: as §1

[3] = compound: CC1=CC(=NN1)NC2=CC(=NC(=N2)/C=C/C3=CC=CC=C3)N4CCN(CC4)C + CS(=O)(=O)CCNCc1ccc(-c2ccc3ncnc(Nc4ccc(OCc5cccc(F)c5)c(Cl)c4)c3c2)o1 [Lapatinib] (partner 2 µM)
Procedure, shortened: as §1

[4] = compound: COC1=CC(c2cc3ccccc3[nH]2)=N/C1=C\c1[nH]c(C)cc1C [Obatoclax] + N=C(N)NC(=N)NCCc1ccccc1 [Phenformin] (partner 250 µM)
Procedure, shortened: as §1

Cell Line	relative viability ([1]; first compound 0.01 µM)	relative viability ([1]; first compound 0.03162 µM)	relative viability ([1]; first compound 0.1 µM)	relative viability ([1]; first compound 0.3162 µM)	relative viability ([1]; first compound 1 µM)	relative viability ([2]; first compound 0.08 µM)	relative viability ([2]; first compound 0.253 µM)	relative viability ([2]; first compound 0.8 µM)	relative viability ([2]; first compound 2.53 µM)	relative viability ([2]; first compound 8 µM)	relative viability ([3]; first compound 0.08 µM)	relative viability ([3]; first compound 0.253 µM)	relative viability ([3]; first compound 0.8 µM)	relative viability ([3]; first compound 2.53 µM)	relative viability ([3]; first compound 8 µM)	relative viability ([4]; first compound 0.01 µM)	relative viability ([4]; first compound 0.03162 µM)	relative viability ([4]; first compound 0.1 µM)	relative viability ([4]; first compound 0.3162 µM)	relative viability ([4]; first compound 1 µM)
NCI-H661	0.741	0.729	0.729	0.676	0.516	0.4	0.41	0.404	0.27	0.269	0.489	0.53	0.57	0.419	0.146	0.284	0.256	0.262	0.263	0.234
NCI-H727	0.815	0.883	0.708	0.637	0.697	0.641	0.628	0.672	0.691	0.409	0.744	0.525	0.805	0.494	0.193	0.692	0.499	0.552	0.529	0.517
NCI-H838	0.747	0.79	0.792	0.577	0.255	0.243	0.241	0.169	0.127	0.106	1.03	1.28	0.831	0.214	0.091	0.567	0.622	0.362	0.46	0.322
NCI-H1355	0.76	0.767	0.781	0.667	0.717	0.442	0.444	0.387	0.309	0.165	1.11	1.03	0.944	0.645	0.422	0.456	0.458	0.431	0.44	0.397
NCI-H1395	0.454	0.418	0.444	0.529	0.332	0.557	0.635	0.628	0.433	0.285	1.22	1.03	0.932	0.456	0.275	0.449	0.38	0.428	0.467	0.44
NCI-H1437	0.634	0.623	0.626	0.623	0.533	0.304	0.317	0.307	0.231	0.152	0.853	0.909	0.833	0.347	0.105	0.242	0.317	0.314	0.296	0.246
NCI-H1650	0.764	0.742	0.774	0.539	0.229	0.285	0.414	0.351	0.201	0.0872	0.775	0.739	0.946	0.109	0.0756	0.429	0.427	0.494	0.449	0.295
NCI-H1651	0.182	0.164	0.189	0.224	0.179	0.525	0.536	0.496	0.462	0.266	0.924	0.941	0.803	0.313	0.123	0.384	0.324	0.386	0.252	0.184
